Measurements published in patent US20240018123A1, “COMPOUND FOR INHIBITING OR DISINTEGRATING ANDROGEN RECEPTOR, AND PHARMACEUTICAL USE THEREOF” (KOREA RESEARCH INSTITUTE OF CHEMICAL TECHNOLOGY, priority 2020, published 2024).
Like-named read-outs stand apart in the source and are kept apart here.

Columns and labels:
[1] = tested on: LNCaP cells
Procedure: (§1) In order to evaluate the androgen receptor (AR) cytotoxicity of the compounds according to the present invention, the following experiment was conducted. Specifically, 1.5×10^3 (LNCaP) or 4×10^3 (VCaP, 22RV1), respectively, of LNCaP, VCaP, and 22RV1 cells were injected into each well of a 96-well plate. The next day, each well was treated with the compound at a final concentration of 3 nM, 10 nM, 30 nM, 100 nM, 300 nM, 1 μM, 3 μM, and 10 μM. […] After 6 days of treatment, Cell-titer-glo (promega) was treated and reacted for 10 minutes, and cell viability was measured with a multimode plate reader (PerkinElmer, Inc.), and the change was quantified compared to when DMSO was treated.

[2] = molecular target: T1, Androgen receptor (AR) (Homo sapiens, UniProt P10275, T878A); experiment: Assessment of AR proteolytic activity (Western blotting of LNCap cell lysates); type: cell-based; conditions: 24 hours of treatment, Western blotting quantified with Image J
T1 construct: 5.5×10^5 LNCap cells were injected into each well of a 6-well plate; endogenous in cells; host or cells: LNCaP
T1 sequence (P10275 1-920 T878A): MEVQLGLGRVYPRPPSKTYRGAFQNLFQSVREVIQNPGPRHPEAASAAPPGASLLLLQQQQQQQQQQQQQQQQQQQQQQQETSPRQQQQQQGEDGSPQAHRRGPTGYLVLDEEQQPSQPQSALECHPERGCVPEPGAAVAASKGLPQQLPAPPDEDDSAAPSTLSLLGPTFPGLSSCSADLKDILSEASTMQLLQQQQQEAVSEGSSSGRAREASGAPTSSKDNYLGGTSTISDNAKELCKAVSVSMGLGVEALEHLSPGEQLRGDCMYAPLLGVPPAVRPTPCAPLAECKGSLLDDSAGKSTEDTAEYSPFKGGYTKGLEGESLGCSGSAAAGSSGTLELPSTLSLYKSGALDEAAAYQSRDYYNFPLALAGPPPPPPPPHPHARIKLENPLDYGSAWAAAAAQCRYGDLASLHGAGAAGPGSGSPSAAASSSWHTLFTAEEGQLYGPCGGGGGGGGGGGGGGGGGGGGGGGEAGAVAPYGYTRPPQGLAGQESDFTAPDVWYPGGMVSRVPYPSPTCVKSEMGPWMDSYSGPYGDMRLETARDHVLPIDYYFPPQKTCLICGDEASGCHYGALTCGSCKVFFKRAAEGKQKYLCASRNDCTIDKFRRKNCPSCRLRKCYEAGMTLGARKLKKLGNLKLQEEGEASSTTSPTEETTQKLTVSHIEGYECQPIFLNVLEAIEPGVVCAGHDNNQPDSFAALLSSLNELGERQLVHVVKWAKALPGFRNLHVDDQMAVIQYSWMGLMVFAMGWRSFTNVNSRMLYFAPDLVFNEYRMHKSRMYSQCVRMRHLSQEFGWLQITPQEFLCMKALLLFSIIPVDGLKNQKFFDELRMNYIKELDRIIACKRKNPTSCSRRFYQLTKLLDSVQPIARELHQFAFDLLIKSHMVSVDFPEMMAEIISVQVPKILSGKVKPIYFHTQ
In short: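 LNCap cells seeded at 5.5×10^5 per well and treated with compound for 24 hours. Lysates prepared in RIPA buffer (pH 7.5, with protease inhibitors). AR protein levels assessed by Western blot with densitometric quantification.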

[3] = tested on: VCaP cells
[4] = tested on: LNCaP cells; experiment: Cytotoxicity assessment (Cell-titer-glo cell viability), LNCaP; conditions: read-out: LNCAP (CC50); LNCaP cells, 6 days of treatment, Cell-titer-glo, vs DMSO
Procedure: as §1

[5] = tested on: 22RV1 cells; experiment: Cytotoxicity assessment (Cell-titer-glo cell viability), 22RV1; type: cell-based; conditions: 22RV1 cells, 6 days of treatment, Cell-titer-glo, vs DMSO; read-out: 22RV1 (CC50)
Procedure: as §1

SMILES | CC50 [1] | Degradation (1 μM treated in LNCaP, % AR remaining) [2] | CC50 [3] | CC50 [4] | CC50 [5]
CC1(C)[C@H](NC(=O)c2ccc(N3CCN(CC4CCN(C(=O)C5CN(c6ccc7nnn(C8CCC(=O)NC8=O)c(=O)c7c6)C5)CC4)CC3)cc2)C(C)(C)[C@H]1Oc1ccc(C#N)c(Cl)c1 (stereo partly drawn) [Example 11, N-((1r,3r)-3-(3-chloro-4-cyanophenoxy)-2,2,4,4-tetramethylcyclobutyl)-4-(4-((1-(1-(3-(2,6-dioxopiperidin-3-yl)-4-oxo-3,4-dihydrobenzo[d][1,2,3]triazin-6-yl)azetidine-3-carbonyl)piperidin-4-yl)methyl)piperazin-1-yl)benzamide] | 91.4 nM | 7% | 74.7 nM | – | –
CC1(C)[C@H](NC(=O)c2ccc(N3CCN(CCC4CCN(c5ccc6nnn(C7CCC(=O)NC7=O)c(=O)c6c5)CC4)CC3)cc2)C(C)(C)[C@H]1Oc1ccc(C#N)c(Cl)c1 (stereo partly drawn) [Example 29, N-((1r,3r)-3-(3-chloro-4-cyanophenoxy)-2,2,4,4-tetramethylcyclobutyl)-4-(4-(2-(1-(3-(2,6-dioxopiperidin-3-yl)-4-oxo-3,4-dihydrobenzo[d][1,2,3]triazin-6-yl)piperidin-4-yl)ethyl)piperazin-1-yl)benzamide] | 425 nM | 6% | 120 nM | – | –
CC1(C)[C@H](NC(=O)c2ccc(-n3cc(C4CCN(C(=O)C5CN(c6ccc7nnn(C8CCC(=O)NC8=O)c(=O)c7c6)C5)CC4)nn3)cc2)C(C)(C)[C@H]1Oc1ccc(C#N)c(Cl)c1 (stereo partly drawn) [Example 101, N-((1r,3r)-3-(3-chloro-4-cyanophenoxy)-2,2,4,4-tetramethylcyclobutyl)-4-(4-(1-(1-(3-(2,6-dioxopiperidin-3-yl)-4-oxo-3,4-dihydrobenzo[d][1,2,3]triazin-6-yl)azetidine-3-carbonyl)piperidin-4-yl)-1H-1,2,3-triazol-1-yl)benzamide] | 7.06 nM | 40% | 15.5 nM | – | –
CC1(C)[C@H](NC(=O)c2ccc(C#CC3CCN(C(=O)CNc4ccc5nnn(C6CCC(=O)NC6=O)c(=O)c5c4)CC3)cc2)C(C)(C)[C@H]1Oc1ccc(C#N)c(Cl)c1 (stereo partly drawn) [Example 143, N-((1r,3r)-3-(3-chloro-4-cyanophenoxy)-2,2,4,4-tetramethylcyclobutyl)-4-((1-((3-(2,6-dioxopiperidin-3-yl)-4-oxo-3,4-dihydrobenzo[d][1,2,3]triazin-6-yl)glycyl)piperidin-4-yl)ethynyl)benzamide] | 17.6 nM | 18% | 6.9 nM | – | –
CC1(C)[C@H](NC(=O)c2ccc(C#CC3CCN(CC4CCN(c5ccc6nnn(C7CCC(=O)NC7=O)c(=O)c6c5)CC4)CC3)cc2)C(C)(C)[C@H]1Oc1ccc(C#N)c(Cl)c1 (stereo partly drawn) [Example 99, N-((1r,3r)-3-(3-chloro-4-cyanophenoxy)-2,2,4,4-tetramethylcyclobutyl)-4-((1-((1-(3-(2,6-dioxopiperidin-3-yl)-4-oxo-3,4-dihydrobenzo[d][1,2,3]triazin-6-yl)piperidin-4-yl)methyl)piperidin-4-yl)ethynyl)benzamide] | 31.5 nM | 20% | 2 nM | – | –
CC1(C)[C@H](NC(=O)c2ccc(N3CCN(CCC4CCN(C(=O)COc5ccc6nnn(C7CCC(=O)NC7=O)c(=O)c6c5)CC4)CC3)cc2)C(C)(C)[C@H]1Oc1ccc(C#N)c(Cl)c1 (stereo partly drawn) [Example 24, N-((1r,3r)-3-(3-chloro-4-cyanophenoxy)-2,2,4,4-tetramethylcyclobutyl)-4-(4-(2-(1-(2-((3-(2,6-dioxopiperidin-3-yl)-4-oxo-3,4-dihydrobenzo[d][1,2,3]triazin-6-yl)oxy)acetyl)piperidin-4-yl)ethyl)piperazin-1-yl)benzamide] | 1480 nM | 13% | 107 nM | – | –
CC1(C)[C@H](NC(=O)c2ccc(N3CCN(CCC4CCN(C(=O)CNc5ccc6nnn(C7CCC(=O)NC7=O)c(=O)c6c5)CC4)CC3)cc2)C(C)(C)[C@H]1Oc1ccc(C#N)c(Cl)c1 (stereo partly drawn) [Example 25, N-((1r,3r)-3-(3-chloro-4-cyanophenoxy)-2,2,4,4-tetramethylcyclobutyl)-4-(4-(2-(1-((3-(2,6-dioxopiperidin-3-yl)-4-oxo-3,4-dihydrobenzo[d][1,2,3]triazin-6-yl)glycyl)piperidin-4-yl)ethyl)piperazin-1-yl)benzamide] | 2130 nM | 50% | 45.7 nM | – | –
CC1(C)[C@H](NC(=O)c2ccc(N3CCN(CCCC4CCN(C(=O)C5CN(c6ccc7nnn(C8CCC(=O)NC8=O)c(=O)c7c6)C5)CC4)CC3)cc2)C(C)(C)[C@H]1Oc1ccc(C#N)c(Cl)c1 (stereo partly drawn) [Example 47, N-((1r,3r)-3-(3-chloro-4-cyanophenoxy)-2,2,4,4-tetramethylcyclobutyl)-4-(4-(3-(1-(1-(3-(2,6-dioxopiperidin-3-yl)-4-oxo-3,4-dihydrobenzo[d][1,2,3]triazin-6-yl)azetidine-3-carbonyl)piperidin-4-yl)propyl)piperazin-1-yl)benzamide] | 168 nM | 43.6% | 23.7 nM | – | –
CC1(C)[C@H](NC(=O)c2ccc(N3CCN(CCC4CCN(c5cccc6nnn(C7CCC(=O)NC7=O)c(=O)c56)CC4)CC3)cc2)C(C)(C)[C@H]1Oc1ccc(C#N)c(Cl)c1 (stereo partly drawn) [Example 28, N-((1r,3r)-3-(3-chloro-4-cyanophenoxy)-2,2,4,4-tetramethylcyclobutyl)-4-(4-(2-(1-(3-(2,6-dioxopiperidin-3-yl)-4-oxo-3,4-dihydrobenzo[d][1,2,3]triazin-5-yl)piperidin-4-yl)ethyl)piperazin-1-yl)benzamide] | 1280 nM | 69% | 1580 nM | – | –
CC1(C)[C@H](NC(=O)c2ccc(C#CC3CCN(C(=O)COc4ccc5nnn(C6CCC(=O)NC6=O)c(=O)c5c4)CC3)cc2)C(C)(C)[C@H]1Oc1ccc(C#N)c(Cl)c1 (stereo partly drawn) [Example 144, N-((1r,3r)-3-(3-chloro-4-cyanophenoxy)-2,2,4,4-tetramethylcyclobutyl)-4-((1-(2-((3-(2,6-dioxopiperidin-3-yl)-4-oxo-3,4-dihydrobenzo[d][1,2,3]triazin-6-yl)oxy)acetyl)piperidin-4-yl)ethynyl)benzamide] | 144 nM | 14.7% | 21 nM | – | –
CC1(C)C(NC(=O)c2ccc(OCCOCCOCCOCCOCCOCCOCCCCNc3cccc4nnn(C5CCC(=O)NC5=O)c(=O)c34)cc2)C(C)(C)C1Oc1ccc(C#N)c(Cl)c1 (stereo not drawn) [Example 6, N-((1r,3r)-3-(3-chloro-4-cyanophenoxy)-2,2,4,4-tetramethylcyclobutyl)-4-((22-((3-(2,6-dioxopiperidin-3-yl)-4-oxo-3,4-dihydrobenzo[d][1,2,3]triazin-5-yl)amino)-3,6,9,12,15,18-hexaoxadocosyl)oxy)benzamide] | – | 66% | – | 5930 nM | 7100 nM
CC1(C)[C@H](NC(=O)c2ccc(N3CCN(CC4(F)CCN(C(=O)C5CN(c6ccc7nnn(C8CCC(=O)NC8=O)c(=O)c7c6)C5)CC4)CC3)cc2)C(C)(C)[C@H]1Oc1ccc(C#N)c(Cl)c1 (stereo partly drawn) [Example 63, N-((1r,3r)-3-(3-chloro-4-cyanophenoxy)-2,2,4,4-tetramethylcyclobutyl)-4-(4-((1-(1-(3-(2,6-dioxopiperidin-3-yl)-4-oxo-3,4-dihydrobenzo[d][1,2,3]triazin-6-yl)azetidine-3-carbonyl)-4-fluoropiperidin-4-yl)methyl)piperazin-1-yl)benzamide] | 53.2 nM | 6% | 14.8 nM | – | –
CC1(C)[C@H](NC(=O)c2ccc(-c3cnn(C4CCN(CC5CCN(C(=O)C6CN(c7ccc8nnn(C9CCC(=O)NC9=O)c(=O)c8c7)C6)CC5)CC4)c3)cc2)C(C)(C)[C@H]1Oc1ccc(C#N)c(Cl)c1 (stereo partly drawn) [Example 83, N-((1r,3r)-3-(3-chloro-4-cyanophenoxy)-2,2,4,4-tetramethylcyclobutyl)-4-(1-(1-((1-(1-(3-(2,6-dioxopiperidin-3-yl)-4-oxo-3,4-dihydrobenzo[d][1,2,3]triazin-6-yl)azetidine-3-carbonyl)piperidin-4-yl)methyl)piperidin-4-yl)-1H-pyrazol-4-yl)benzamide] | 13.7 nM | 43% | 6 nM | – | –
